Data as given in patent US20250230193A1, “CYCLIC COMPOUND HAVING SELECTIVE KRAS INHIBITORY EFFECT ON HRAS AND NRAS” (CHUGAI SEIYAKU KABUSHIKI KAISHA, priority 2022, published 2025).
Where a SMILES comes first, the peptide text is derived from it. Bridges are numbered along the chain shown (N, C = ends). [ ]: non-standard residue; d: D form. The star is where a group is joined. hPhe(3-Cl-4-CF3) = N[C@@H](CCc1ccc(C(F)(F)F)c(Cl)c1)C(=O)O; NPrPhe(4-CF3) = CCCN[C@@H](Cc1ccc(C(F)(F)F)cc1)C(=O)O; NMeGly(cPent) = CN[C@H](C(=O)O)C1CCCC1; Pro(4,4-F2) = O=C(O)[C@@H]1CC(F)(F)CN1; Hyp = O=C(O)[C@@H]1C[C@@H](O)CN1; NMeL = CN[C@@H](CC(C)C)C(=O)O; Morpholide = C1CN(*)CCO1; Ac5c = NC1(C(=O)O)CCCC1; Aze = O=C(O)[C@@H]1CCN1; Ac4c = NC1(C(=O)O)CCC1; NEtG = CCNCC(=O)O; Sar = CNCC(=O)O

How the values were obtained:
[1] = molecular target: GDP-bound NRAS wild-type protein (Homo sapiens, UniProt P01111); assay: Binding to NRAS by surface plasmon resonance (SPR), Single Cycle Kinetics; conditions: KD ratio NRAS/KRAS, SPR
[2] = molecular target: GDP-bound HRAS wild-type protein (Homo sapiens, UniProt P01112); assay: Binding to HRAS by surface plasmon resonance (SPR), Single Cycle Kinetics; conditions: KD ratio HRAS/KRAS, SPR
Sequence of GDP-bound HRAS wild-type protein (P01112 whole entry): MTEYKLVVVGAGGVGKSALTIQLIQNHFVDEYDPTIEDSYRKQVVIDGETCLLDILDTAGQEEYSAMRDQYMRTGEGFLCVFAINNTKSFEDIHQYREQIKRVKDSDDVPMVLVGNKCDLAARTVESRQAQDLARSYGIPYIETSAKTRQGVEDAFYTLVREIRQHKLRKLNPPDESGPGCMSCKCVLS

Sequence of GDP-bound NRAS wild-type protein (P01111 whole entry): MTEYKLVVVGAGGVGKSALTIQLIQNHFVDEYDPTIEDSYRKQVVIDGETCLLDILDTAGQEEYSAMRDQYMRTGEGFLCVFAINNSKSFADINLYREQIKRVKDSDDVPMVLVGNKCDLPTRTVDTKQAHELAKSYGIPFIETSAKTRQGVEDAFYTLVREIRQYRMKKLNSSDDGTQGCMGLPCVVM

| Structure (SMILES) | NRAS/KRAS (ratio of KD for GDP-bound NRAS wild-type to KD for KRAS) [1] | HRAS/KRAS (ratio of KD for GDP-bound HRAS wild-type to KD for KRAS) [2] |
| --- | --- | --- |
| CCCN1C(=O)CN(C)C(=O)CNC(=O)[C@H]([C@@H](C)CC)NC(=O)[C@H](CC(C)C)N(C)C(=O)C[C@@H](C(=O)N2CCOCC2)NC(=O)[C@H](C2CCCC2)N(C)C(=O)C2(CCC2)NC(=O)[C@@H]2C[C@@H](OCC)CN2C(=O)[C@H](CCc2ccc(C(F)(F)F)c(Cl)c2)NC(=O)CN(C)C(=O)[C@@H]1Cc1ccc(C(F)(F)F)cc1 [PP0330] ([NMeL]IG[Sar][NPrPhe(4-CF3)][Sar][hPhe(3-Cl-4-CF3)][Hyp](Et)[Ac4c][NMeGly(cPent)]D-Morpholide; lactam N-11) | B (a compound having 3 or more and less than 10 is denoted as B) | C (A compound having a KD ratio of 0.1 or more and less than 3 is denoted as C) |
| CCCN1C(=O)CN(C)C(=O)CN(CC)C(=O)[C@H]([C@@H](C)CC)NC(=O)[C@H](CC(C)C)N(C)C(=O)C[C@@H](C(=O)N2CCOCC2)NC(=O)[C@H](C2CCCC2)N(C)C(=O)C2(CCCC2)NC(=O)[C@@H]2CCCN2C(=O)[C@H](CCc2ccc(C(F)(F)F)c(Cl)c2)NC(=O)CN(C)C(=O)[C@@H]1Cc1ccc(C(F)(F)F)cc1 [PP0331] ([NMeL]I[NEtG][Sar][NPrPhe(4-CF3)][Sar][hPhe(3-Cl-4-CF3)]P[Ac5c][NMeGly(cPent)]D-Morpholide; lactam N-11) | B (a compound having 3 or more and less than 10 is denoted as B) | B (a compound having 3 or more and less than 10 is denoted as B) |
| CCCN1C(=O)CN(C)C(=O)CN(CC)C(=O)[C@H]([C@@H](C)CC)NC(=O)[C@H](CC(C)C)N(C)C(=O)C[C@@H](C(=O)N2CCOCC2)NC(=O)[C@H](C2CCCC2)N(C)C(=O)C2(CCC2)NC(=O)[C@@H]2CCCN2C(=O)[C@H](CCc2ccc(C(F)(F)F)c(Cl)c2)NC(=O)CN(C)C(=O)[C@@H]1Cc1ccc(C(F)(F)F)cc1 [PP0332] ([NMeL]I[NEtG][Sar][NPrPhe(4-CF3)][Sar][hPhe(3-Cl-4-CF3)]P[Ac4c][NMeGly(cPent)]D-Morpholide; lactam N-11) | B (a compound having 3 or more and less than 10 is denoted as B) | B (a compound having 3 or more and less than 10 is denoted as B) |
| CCCN1C(=O)CN(C)C(=O)CN(CC)C(=O)[C@H]([C@@H](C)CC)NC(=O)[C@H](CC(C)C)N(C)C(=O)C[C@@H](C(=O)N2CCOCC2)NC(=O)[C@H](C2CCCC2)N(C)C(=O)C2(CCCC2)NC(=O)[C@@H]2CC(F)(F)CN2C(=O)[C@H](CCc2ccc(C(F)(F)F)c(Cl)c2)NC(=O)CN(C)C(=O)[C@@H]1Cc1ccc(C(F)(F)F)cc1 [PP0333] ([NMeL]I[NEtG][Sar][NPrPhe(4-CF3)][Sar][hPhe(3-Cl-4-CF3)][Pro(4,4-F2)][Ac5c][NMeGly(cPent)]D-Morpholide; lactam N-11) | B (a compound having 3 or more and less than 10 is denoted as B) | C (A compound having a KD ratio of 0.1 or more and less than 3 is denoted as C) |
| CCCN1C(=O)CN(C)C(=O)CN(CC)C(=O)[C@H]([C@@H](C)CC)NC(=O)[C@H](CC(C)C)N(C)C(=O)C[C@@H](C(=O)N2CCOCC2)NC(=O)[C@H](C2CCCC2)N(C)C(=O)C2(CCC2)NC(=O)[C@@H]2CC(F)(F)CN2C(=O)[C@H](CCc2ccc(C(F)(F)F)c(Cl)c2)NC(=O)CN(C)C(=O)[C@@H]1Cc1ccc(C(F)(F)F)cc1 [PP0334] ([NMeL]I[NEtG][Sar][NPrPhe(4-CF3)][Sar][hPhe(3-Cl-4-CF3)][Pro(4,4-F2)][Ac4c][NMeGly(cPent)]D-Morpholide; lactam N-11) | B (a compound having 3 or more and less than 10 is denoted as B) | C (A compound having a KD ratio of 0.1 or more and less than 3 is denoted as C) |
| CCCN1C(=O)CN(C)C(=O)CN(CC)C(=O)[C@H]([C@@H](C)CC)NC(=O)[C@H](CC(C)C)N(C)C(=O)C[C@@H](C(=O)N2CCOCC2)NC(=O)[C@H](C2CCCC2)N(C)C(=O)C2(CCCC2)NC(=O)[C@@H]2C[C@@H](OCC)CN2C(=O)[C@H](CCc2ccc(C(F)(F)F)c(Cl)c2)NC(=O)CN(C)C(=O)[C@@H]1Cc1ccc(C(F)(F)F)cc1 [PP0335] ([NMeL]I[NEtG][Sar][NPrPhe(4-CF3)][Sar][hPhe(3-Cl-4-CF3)][Hyp](Et)[Ac5c][NMeGly(cPent)]D-Morpholide; lactam N-11) | B (a compound having 3 or more and less than 10 is denoted as B) | C (A compound having a KD ratio of 0.1 or more and less than 3 is denoted as C) |
| CCCN1C(=O)CN(C)C(=O)CN(CC)C(=O)[C@H]([C@@H](C)CC)NC(=O)[C@H](CC(C)C)N(C)C(=O)C[C@@H](C(=O)N2CCOCC2)NC(=O)[C@H](C2CCCC2)N(C)C(=O)C2(CCC2)NC(=O)[C@@H]2C[C@@H](OCC)CN2C(=O)[C@H](CCc2ccc(C(F)(F)F)c(Cl)c2)NC(=O)CN(C)C(=O)[C@@H]1Cc1ccc(C(F)(F)F)cc1 [PP0336] ([NMeL]I[NEtG][Sar][NPrPhe(4-CF3)][Sar][hPhe(3-Cl-4-CF3)][Hyp](Et)[Ac4c][NMeGly(cPent)]D-Morpholide; lactam N-11) | B (a compound having 3 or more and less than 10 is denoted as B) | B (a compound having 3 or more and less than 10 is denoted as B) |
| CCCN1C(=O)CN(C)C(=O)[C@@H]2CCN2C(=O)[C@H]([C@@H](C)CC)NC(=O)[C@H](CC(C)C)N(C)C(=O)C[C@@H](C(=O)N2CCOCC2)NC(=O)[C@H](C2CCCC2)N(C)C(=O)C2(CCCC2)NC(=O)[C@@H]2CCCN2C(=O)[C@H](CCc2ccc(C(F)(F)F)c(Cl)c2)NC(=O)CN(C)C(=O)[C@@H]1Cc1ccc(C(F)(F)F)cc1 [PP0337] ([NMeL]I[Aze][Sar][NPrPhe(4-CF3)][Sar][hPhe(3-Cl-4-CF3)]P[Ac5c][NMeGly(cPent)]D-Morpholide; lactam N-11) | B (a compound having 3 or more and less than 10 is denoted as B) | B (a compound having 3 or more and less than 10 is denoted as B) |
| CCCN1C(=O)CN(C)C(=O)[C@@H]2CCN2C(=O)[C@H]([C@@H](C)CC)NC(=O)[C@H](CC(C)C)N(C)C(=O)C[C@@H](C(=O)N2CCOCC2)NC(=O)[C@H](C2CCCC2)N(C)C(=O)C2(CCC2)NC(=O)[C@@H]2CCCN2C(=O)[C@H](CCc2ccc(C(F)(F)F)c(Cl)c2)NC(=O)CN(C)C(=O)[C@@H]1Cc1ccc(C(F)(F)F)cc1 [PP0338] ([NMeL]I[Aze][Sar][NPrPhe(4-CF3)][Sar][hPhe(3-Cl-4-CF3)]P[Ac4c][NMeGly(cPent)]D-Morpholide; lactam N-11) | B (a compound having 3 or more and less than 10 is denoted as B) | B (a compound having 3 or more and less than 10 is denoted as B) |
